Test results as given in publication PMC8940841, “A metabolically stable PET tracer for imaging synaptic vesicle protein 2A: synthesis and preclinical characterization of [^18F]SDM-16” (European Journal of Nuclear Medicine and Molecular Imaging, 2021).
Read-outs that look alike come from different tables or passages of the source.

Key:
[1] = Free base fraction in plasma by modified Henderson-Hasselbalch equation (Eq. 1); details: Eq. 1, plasma pH 7.4
SV2A [2] = test: Brain PET imaging with 1TC kinetic modeling
[3] = Brain PET imaging with 1TC kinetic modeling; details: rhesus monkey, in vivo
SV2A [4] = details: 1TC, cited from earlier work
[5] = Measurement of lipophilicity (octanol / PBS pH 7.4); type: physicochemical; details: octanol/PBS pH 7.4
Protocol: The logP of [^18F]SDM-16 was determined by a method modified from previously published procedures. Briefly, an aliquot of […] (10 µCi) of the radioligand was added to a 2-mL microtube containing 0.8 mL of octanol and 0.8 mL of 1 × phosphate buffered saline (1 × PBS, pH 7.4). The mixture was vortexed for 30 s and then centrifuged at 2000 g for 2 min. A subsample of the octanol (0.1 mL) and 1 × PBS (0.5 mL) layers was evaluated with a gamma counter. The major portion of the octanol layer (0.5 mL) was diluted with another 0.3 mL of octanol, mixed with a fresh portion of 0.8 mL of PBS, vortexed, centrifuged, and analyzed as described above. This process was repeated until consistent log P values were obtained, with five consecutive equilibration procedures being performed for each logP measurement. Four separate measurements were performed for [^18F]SDM-16 on different days.

[6] = female rhesus macaques, 1-h voiding model; cited from earlier work
[7] = Plasma radiometabolite analysis during PET scans; type: in vivo, rhesus monkeys; details: 30 min p.i.
Protocol: Arterial blood samples were collected during the PET scans to measure the radioactivity in plasma for generation of the metabolite-corrected arterial plasma input function. Plasma radiometabolite analysis was performed using the column-switching method, following a published protocol. Briefly, arterial blood samples were collected at 3-, 8-, 15-, 30-, 60-, 90-, 120-, and 180-min post-injection (p. i.), treated with urea (8 M), filtered, and injected onto a self-packed short column (4.6 × 19 mm) eluting with 1% MeCN in water at a flow rate of 2 mL/min. The sample was then back flushed onto a Gemini-NX column (5 μm, 4.6 mm × 250 mm) eluting with 40% MeCN/60% 0.1 M ammonium formate (pH 6.4) at a flow rate of 1.2 mL/min. The eluent was fraction-collected using an automated spectrum chromatography CF-1 fraction collector. Activity in the whole blood, plasma, filtrated plasma-urea mix, filters, and HPLC fractions were counted with automatic gamma well-counter (Wizard 2, PerkinElmer). The sample recovery rate, extraction efficiency, and HPLC fraction recovery were monitored. The unmetabolized [^18F]SDM-16 parent fraction was determined as the ratio of the sum of radioactivity in fractions containing the parent compound to the total amount of radioactivity collected and fitted with inverted Gamma4 approaches.
[^18F]SDM-16 had higher metabolite-corrected plasma SUV than the other SV2A radiotracers, indicating slower plasma clearance and higher metabolic stability (Fig. 2a). Whole-blood and plasma-input functions were highly consistent between the two animals, with a stable plasma to whole-blood ratio of 0.93 ± 0.13 over the entire 180-min acquisition period (Fig. S1).

[8] = Plasma free fraction (fp) by ultrafiltration; type: in vitro ADME, rhesus monkey; details: monkey, plasma (separated from spiked whole blood)
Protocol: The unbound fraction of [^18F]SDM-16 in plasma (fp) of rhesus monkey was measured in triplicate using the ultrafiltration method. Briefly, [^18F]SDM-16 solution was added to 3 mL of whole blood. After incubation at ambient temperature for 5 min, the blood sample was centrifuged at 3900 rpm for 5 min. A sample of the supernatant plasma (0.3 mL) was loaded onto the reservoir of a Centrifree® Ultrafiltration device (Merck Millipore Ltd. Tullagreen, Carrigtwohill, Co. Cork, IRELAND) in triplicate and centrifuged at 1228 g for 20 min. The fp value was calculated as the ratio of radioactivity in the filtrate to that in the plasma.

SV2A [9] = molecular target: SV2A (Macaca mulatta, UniProt H9EQH8); details: previously determined; cited from earlier work
SV2A (Macaca mulatta, UniProt H9EQH8), sequence (H9EQH8 1-742): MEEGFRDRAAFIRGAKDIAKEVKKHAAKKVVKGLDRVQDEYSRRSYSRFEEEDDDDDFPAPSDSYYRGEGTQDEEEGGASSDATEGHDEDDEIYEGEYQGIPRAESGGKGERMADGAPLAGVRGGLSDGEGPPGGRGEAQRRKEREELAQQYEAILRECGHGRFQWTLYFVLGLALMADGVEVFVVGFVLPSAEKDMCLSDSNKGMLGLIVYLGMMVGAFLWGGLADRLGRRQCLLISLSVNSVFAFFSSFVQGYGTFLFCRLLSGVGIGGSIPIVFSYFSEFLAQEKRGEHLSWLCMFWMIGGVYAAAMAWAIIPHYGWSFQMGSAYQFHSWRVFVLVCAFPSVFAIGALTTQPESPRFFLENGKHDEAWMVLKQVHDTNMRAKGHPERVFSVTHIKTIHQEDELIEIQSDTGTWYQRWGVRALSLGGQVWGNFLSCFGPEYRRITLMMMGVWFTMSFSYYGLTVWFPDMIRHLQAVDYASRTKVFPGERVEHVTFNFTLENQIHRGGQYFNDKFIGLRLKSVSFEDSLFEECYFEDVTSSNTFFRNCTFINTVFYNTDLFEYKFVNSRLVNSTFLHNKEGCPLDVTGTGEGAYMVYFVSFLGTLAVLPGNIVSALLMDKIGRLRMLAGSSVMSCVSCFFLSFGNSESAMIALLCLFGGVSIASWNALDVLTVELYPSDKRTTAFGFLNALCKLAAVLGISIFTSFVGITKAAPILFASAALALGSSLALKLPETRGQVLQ

[10] = conjugate acid; cited from earlier work

## Cc1cnccc1CN1C[C@@H](c2cc(F)cc([18F])c2)CC1=O [[^18F]SynVesT-1]
[1]
  fraction present in plasma as free base: 81%
SV2A [2]; Amygdala
  BPND, VND method: 4.24 ± 4.05
  BPND, VT(CS) method: 1.9 ± 1.1
  K1: 0.56 ± 0.36 mL/cm^3 per min
SV2A [2]; Anterior cingulate
  BPND, VND method: 8.44 ± 4.27
  BPND, VT(CS) method: 4.1 ± 0.7
  K1: 1.05 ± 0.66 mL/cm^3 per min
SV2A [2]; Brainstem
  BPND, VND method: 2.30 ± 0.99
  BPND, VT(CS) method: 0.8 ± 0.0
  K1: 1.37 ± 1.26 mL/cm^3 per min
SV2A [2]; Caudate
  BPND, VND method: 6.23 ± 2.96
  BPND, VT(CS) method: 3.0 ± 0.4
  K1: 0.95 ± 0.49 mL/cm^3 per min
SV2A [2]; Cerebellum
  BPND, VND method: 4.74 ± 1.81
  BPND, VT(CS) method: 2.2 ± 0.2
  K1: 0.88 ± 0.41 mL/cm^3 per min
SV2A [2]; Cingulate cortex
  BPND, VND method: 9.04 ± 3.59
  BPND, VT(CS) method: 4.5 ± 0.4
SV2A [2]; Frontal cortex
  BPND, VND method: 8.64 ± 3.59
  BPND, VT(CS) method: 4.3 ± 0.6
  K1: 0.79 ± 0.39 mL/cm^3 per min
SV2A [2]; Globus pallidus
  BPND, VND method: 3.42 ± 1.90
  BPND, VT(CS) method: 1.4 ± 0.3
  K1: 0.73 ± 0.49 mL/cm^3 per min
SV2A [2]; Guo plot of baseline VT
  in vivo Kd ratio, Kd(tracer)/Kd([^18F]SDM-16): 0.41
SV2A [2]; Hippocampus
  BPND, VND method: 5.19 ± 2.56
  BPND, VT(CS) method: 2.4 ± 0.4
  K1: 0.68 ± 0.34 mL/cm^3 per min
SV2A [2]; Insular cortex
  BPND, VND method: 8.41 ± 3.27
  BPND, VT(CS) method: 4.2 ± 0.3
  K1: 0.93 ± 0.48 mL/cm^3 per min
SV2A [2]; Mean ± SD over brain regions
  K1: 0.91 ± 0.28 mL/cm^3 per min
SV2A [2]; Nucleus accumbens
  BPND, VND method: 8.41 ± 3.54
  BPND, VT(CS) method: 4.1 ± 0.4
  K1: 0.99 ± 0.63 mL/cm^3 per min
SV2A [2]; Occipital cortex
  BPND, VND method: 7.61 ± 2.51
  BPND, VT(CS) method: 3.9 ± 0.2
  K1: 0.88 ± 0.47 mL/cm^3 per min
SV2A [2]; Putamen
  BPND, VND method: 6.41 ± 2.96
  BPND, VT(CS) method: 2.9 ± 0.4
  K1: 1.25 ± 0.82 mL/cm^3 per min
SV2A [2]; Temporal cortex
  BPND, VND method: 7.36 ± 2.64
  BPND, VT(CS) method: 3.7 ± 0.3
  K1: 0.74 ± 0.34 mL/cm^3 per min
SV2A [2]; Thalamus
  BPND, VND method: 6.59 ± 3.72
  BPND, VT(CS) method: 2.9 ± 0.7
  K1: 0.93 ± 0.71 mL/cm^3 per min
[3]
  fraction unbound: 0.101
SV2A [4]; Amygdala
  VT (baseline): 24.8 ± 8.5 mL/cm^3
SV2A [4]; Brainstem
  VT (baseline): 16.3 ± 3.6 mL/cm^3
SV2A [4]; Caudate
  VT (baseline): 35.0 ± 6.3 mL/cm^3
SV2A [4]; Centrum semiovale
  VT (baseline): 8.9 ± 2.0 mL/cm^3
SV2A [4]; Cerebellum
  VT (baseline): 28.9 ± 6.8 mL/cm^3
SV2A [4]; Cingulate cortex
  VT (baseline): 48.5 ± 8.9 mL/cm^3
SV2A [4]; Frontal cortex
  VT (baseline): 47.1 ± 9.1 mL/cm^3
SV2A [4]; Globus pallidus
  VT (baseline): 21.6 ± 4.2 mL/cm^3
SV2A [4]; Hippocampus
  VT (baseline): 30.1 ± 5.6 mL/cm^3
SV2A [4]; Insular cortex
  VT (baseline): 46.1 ± 9.2 mL/cm^3
SV2A [4]; Nucleus accumbens
  VT (baseline): 45.2 ± 7.9 mL/cm^3
SV2A [4]; Occipital cortex
  VT (baseline): 43.7 ± 10.7 mL/cm^3
SV2A [4]; Putamen
  VT (baseline): 34.6 ± 4.9 mL/cm^3
SV2A [4]; Temporal cortex
  VT (baseline): 42.2 ± 10.0 mL/cm^3
SV2A [4]; Thalamus
  VT (baseline): 34.2 ± 3.0 mL/cm^3
[5]
  logP: 2.32
[6]
  effective dose (ED): 20 µSv/MBq
[7]
  parent fraction in plasma: 42 ± 13%
[8]
  fraction unbound at 5 min: 0.43
SV2A [9]
  VND: 4.96 mL/cm^3

## lutidine
[10]
  pKa exp.: 6.77
